# Measured values taken from article PMC11116522, “Illuminating the function of the orphan transporter, SLC22A10, in humans and other primates” (Nature Communications, 2024).
# Counter-ions that a name gives are not always drawn.
# T1: chimpanzee SLC22A10 (533 aa) (Pan troglodytes, UniProt A0A2I3TWY5)
# T1 sequence (A0A2I3TWY5 1-540): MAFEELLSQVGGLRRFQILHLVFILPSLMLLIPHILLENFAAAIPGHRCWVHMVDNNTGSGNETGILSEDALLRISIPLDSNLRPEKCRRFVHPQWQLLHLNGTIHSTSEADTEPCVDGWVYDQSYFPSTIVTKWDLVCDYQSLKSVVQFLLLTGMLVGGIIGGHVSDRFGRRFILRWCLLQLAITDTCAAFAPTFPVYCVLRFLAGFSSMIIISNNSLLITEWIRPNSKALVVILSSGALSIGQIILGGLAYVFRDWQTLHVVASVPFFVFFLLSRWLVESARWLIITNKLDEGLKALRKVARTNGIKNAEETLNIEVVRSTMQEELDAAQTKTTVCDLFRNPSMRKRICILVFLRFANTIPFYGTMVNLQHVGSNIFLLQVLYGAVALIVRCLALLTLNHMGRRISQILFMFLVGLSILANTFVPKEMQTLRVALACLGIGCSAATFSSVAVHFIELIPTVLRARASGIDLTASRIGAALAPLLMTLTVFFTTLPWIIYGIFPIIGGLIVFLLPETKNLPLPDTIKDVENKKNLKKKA
# T2: human SLC22A10 (541 aa) (Homo sapiens, UniProt Q63ZE4, P220L)
# T2 construct: full length 541 aa, pcDNA3.1(+) or N-terminal eGFP fusion, transient HEK293 Flp-In cells
# T2 sequence (Q63ZE4 1-541 P220L): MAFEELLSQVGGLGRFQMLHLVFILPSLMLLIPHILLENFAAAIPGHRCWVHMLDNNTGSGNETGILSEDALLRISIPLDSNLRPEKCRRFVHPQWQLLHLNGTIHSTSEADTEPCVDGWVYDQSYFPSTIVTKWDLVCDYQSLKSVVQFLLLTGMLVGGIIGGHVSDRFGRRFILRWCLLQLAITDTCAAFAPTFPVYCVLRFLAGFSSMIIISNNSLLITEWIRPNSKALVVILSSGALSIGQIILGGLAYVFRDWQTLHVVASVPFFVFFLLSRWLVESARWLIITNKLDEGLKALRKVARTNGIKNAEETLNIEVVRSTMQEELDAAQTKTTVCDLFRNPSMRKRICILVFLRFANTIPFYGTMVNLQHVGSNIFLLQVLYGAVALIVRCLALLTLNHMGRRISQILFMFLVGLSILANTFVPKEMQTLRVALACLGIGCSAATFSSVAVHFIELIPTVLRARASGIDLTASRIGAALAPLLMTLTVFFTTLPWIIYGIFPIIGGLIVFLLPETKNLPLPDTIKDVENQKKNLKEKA
# T3: orangutan SLC22A10 (533 aa) (Pongo abelii, UniProt A0A8I5UWR8)
# T3 construct: full length 533 aa isoform, synthetic cDNA, HEK293 Flp-In cells
# T3 sequence (A0A8I5UWR8 1-533): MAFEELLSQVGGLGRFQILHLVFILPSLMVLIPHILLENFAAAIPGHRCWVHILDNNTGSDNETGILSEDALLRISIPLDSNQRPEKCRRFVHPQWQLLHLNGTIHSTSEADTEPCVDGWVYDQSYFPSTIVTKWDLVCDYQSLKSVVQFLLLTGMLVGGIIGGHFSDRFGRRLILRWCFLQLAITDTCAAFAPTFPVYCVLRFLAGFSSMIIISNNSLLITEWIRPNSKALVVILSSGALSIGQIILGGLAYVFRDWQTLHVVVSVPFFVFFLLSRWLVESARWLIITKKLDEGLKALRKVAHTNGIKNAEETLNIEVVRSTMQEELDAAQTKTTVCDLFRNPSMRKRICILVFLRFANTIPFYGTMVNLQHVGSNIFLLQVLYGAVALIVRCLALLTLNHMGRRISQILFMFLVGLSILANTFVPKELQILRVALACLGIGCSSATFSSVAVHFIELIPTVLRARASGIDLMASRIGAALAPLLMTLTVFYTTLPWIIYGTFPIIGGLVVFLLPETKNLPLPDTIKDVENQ
# T4: squirrel monkey SLC22A10 (552 aa) (Saimiri boliviensis, UniProt A0A2K6SBP5)
# T4 construct: full length 552 aa, synthetic cDNA, HEK293 Flp-In cells
# T4 sequence (A0A2K6SBP5 1-552): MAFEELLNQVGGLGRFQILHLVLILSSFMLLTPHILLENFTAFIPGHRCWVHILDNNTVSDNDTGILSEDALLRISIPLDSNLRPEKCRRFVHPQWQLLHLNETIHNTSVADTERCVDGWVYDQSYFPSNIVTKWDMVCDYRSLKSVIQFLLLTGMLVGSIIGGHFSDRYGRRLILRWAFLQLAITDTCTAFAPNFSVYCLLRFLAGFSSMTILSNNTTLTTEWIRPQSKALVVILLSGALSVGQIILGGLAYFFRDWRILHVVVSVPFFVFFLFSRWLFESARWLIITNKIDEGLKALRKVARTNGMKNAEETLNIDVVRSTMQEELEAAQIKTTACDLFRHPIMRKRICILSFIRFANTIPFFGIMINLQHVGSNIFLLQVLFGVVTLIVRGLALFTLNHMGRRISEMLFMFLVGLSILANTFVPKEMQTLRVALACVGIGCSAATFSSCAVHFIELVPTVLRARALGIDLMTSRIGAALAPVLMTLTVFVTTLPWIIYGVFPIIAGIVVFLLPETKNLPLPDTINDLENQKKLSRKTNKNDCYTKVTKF
# B1: chimpanzee SLC22A10 (552 aa) (Pan troglodytes) (protein)
# chain: MAFEELLSQVGGLRRFQILHLVFILPSLMLLIPHILLENFAAAIPGHRCWVHMVDNNTGSGNETGILSEDALLRISIPLDSNLRPEKCRRFVHPQWQLLHLNGTIHSTSEADTEPCVDGWVYDQSYFPSTIVTKWDLVCDYQSLKSVVQFLLLTGMLVGGIIGGHVSDRFGRRFILRWCLLQLAITDTCAAFAPTFPVYCVLRFLAGFSSMIIISNNSLLITEWIRPNSKALVVILSSGALSIGQIILGGLAYVFRDWQTLHVVASVPFFVFFLLSRWLVESARWLIITNKLDEGLKALRKVARTNGIKNAEETLNIEVVRSTMQEELDAAQTKTTVCDLFRNPSMRKRICILVFLRFANTIPFYGTMVNLQHVGSNIFLLQVLYGAVALIVRCLALLTLNHMGRRISQILFMFLVGLSILANTFVPKEMQTLRVALACLGIGCSAATFSSVAVHFIELIPTVLRARASGIDLTASRIGAALAPLLMTLTVFFTTLPWIIYGIFPIIGGLIVFLLPETKNLPLPDTIKDVENQKKISRKRHKNDCYTKVTKF
# How the values were obtained:
# [1] = molecular target: T1, chimpanzee SLC22A10 (533 aa); experiment: radiolabelled uptake in stable HEK293 Flp-In cells, Michaelis-Menten fit; type: cell-based; settings: 37 °C, 5 min uptake, HBSS; empty-vector uptake subtracted; labelled compound
# [2] = molecular target: T2, human SLC22A10 (541 aa); experiment: radiolabelled uptake in transiently transfected HEK293 Flp-In cells; type: cell-based; settings: labelled compound; HBSS
# [3] = molecular target: T5, gibbon SLC22A10 (533 aa) (Nomascus leucogenys, UniProt G1QWU8); experiment: radiolabelled uptake in HEK293 Flp-In cells; type: cell-based; settings: labelled compound; HBSS
# T5 construct: gene LOC100590002; full length 533 aa isoform, synthetic cDNA, HEK293 Flp-In cells
# [4] = molecular target: T3, orangutan SLC22A10 (533 aa); experiment: radiolabelled uptake in HEK293 Flp-In cells; type: cell-based; settings: labelled compound; HBSS
# [5] = molecular target: T6, gorilla SLC22A10 (552 aa) (Gorilla gorilla, UniProt G3RG24); experiment: radiolabelled uptake in HEK293 Flp-In cells; type: cell-based; settings: labelled compound; HBSS
# T6 construct: full length 552 aa, synthetic cDNA, HEK293 Flp-In cells
# [6] = molecular target: T4, squirrel monkey SLC22A10 (552 aa); experiment: radiolabelled uptake in HEK293 Flp-In cells; type: cell-based; settings: labelled compound; HBSS
# [7] = substrate: C[C@]12CC[C@@H]3c4ccc(O)cc4CC[C@H]3[C@@H]1CC[C@@H]2O[C@@H]1O[C@H](C(=O)O)[C@@H](O)[C@H](O)[C@H]1O; experiment: radiolabelled uptake in stable HEK293 Flp-In cells, Michaelis-Menten fit; type: cell-based, Pan troglodytes; settings: 37 °C, 5 min uptake, HBSS, empty-vector uptake subtracted, labelled compound
# T5 sequence (G1QWU8 1-533): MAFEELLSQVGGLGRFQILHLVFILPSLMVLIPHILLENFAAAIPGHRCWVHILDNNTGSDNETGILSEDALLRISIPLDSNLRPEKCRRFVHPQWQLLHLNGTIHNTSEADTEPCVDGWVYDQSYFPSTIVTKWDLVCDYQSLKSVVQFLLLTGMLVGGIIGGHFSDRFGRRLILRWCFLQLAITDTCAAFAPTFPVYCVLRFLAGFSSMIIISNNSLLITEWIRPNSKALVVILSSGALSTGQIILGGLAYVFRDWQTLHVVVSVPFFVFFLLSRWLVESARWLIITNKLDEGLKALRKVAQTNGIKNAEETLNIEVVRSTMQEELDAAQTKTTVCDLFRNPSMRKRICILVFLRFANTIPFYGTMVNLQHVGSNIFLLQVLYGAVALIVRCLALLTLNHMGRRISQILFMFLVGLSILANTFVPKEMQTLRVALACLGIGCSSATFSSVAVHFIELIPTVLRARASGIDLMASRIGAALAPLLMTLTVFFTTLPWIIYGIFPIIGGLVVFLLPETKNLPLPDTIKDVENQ
# T6 sequence (G3RG24 entry or part of it): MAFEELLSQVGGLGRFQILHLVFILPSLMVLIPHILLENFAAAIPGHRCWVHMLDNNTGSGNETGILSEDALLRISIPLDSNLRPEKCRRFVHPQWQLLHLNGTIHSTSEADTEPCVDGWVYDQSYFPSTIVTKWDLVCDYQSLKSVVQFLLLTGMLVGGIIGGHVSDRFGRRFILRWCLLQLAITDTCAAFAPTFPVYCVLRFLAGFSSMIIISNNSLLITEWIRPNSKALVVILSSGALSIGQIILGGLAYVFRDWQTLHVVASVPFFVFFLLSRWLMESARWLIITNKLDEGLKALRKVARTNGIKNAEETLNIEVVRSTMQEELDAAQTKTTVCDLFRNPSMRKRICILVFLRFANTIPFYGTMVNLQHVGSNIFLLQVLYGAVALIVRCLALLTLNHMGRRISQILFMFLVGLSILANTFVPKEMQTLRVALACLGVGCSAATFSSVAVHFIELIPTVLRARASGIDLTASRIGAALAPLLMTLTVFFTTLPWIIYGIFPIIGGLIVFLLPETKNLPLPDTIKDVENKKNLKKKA
molecule,measurement,setting,value
C[C@]12CC[C@@H]3c4ccc(O)cc4CC[C@H]3[C@@H]1CC[C@@H]2O[C@@H]1O[C@H](C(=O)O)[C@@H](O)[C@H](O)[C@H]1O [estradiol-17β-glucuronide],Km,[1],3.28 ± 2.25 µM
same,fold uptake,[2],"resulting in substantial accumulation of the substrate, estradiol-17β-glucuronide"
same,fold uptake,[3],"from chimpanzee, orangutan and gibbon accumulated [^3H]-estradiol-17β-glucuronide and [^3H]-folic acid"
same,fold uptake,[4],"from chimpanzee, orangutan and gibbon accumulated [^3H]-estradiol-17β-glucuronide and [^3H]-folic acid"
same,fold uptake,[5],Significant accumulation of [^3H]-estradiol-17β-glucuronide and [^3H]-androstanediol-3α-glucuronide were observed in cells expressing
C[C@]12CC[C@@H]3c4ccc(OS(=O)(=O)O)cc4CC[C@H]3[C@@H]1CCC2=O [estrone sulfate],uptake,[6],"squirrel monkey, a New World monkey, preferred estrone sulfate over estradiol-17β- glucuronide"
Nc1nc2ncc(CNc3ccc(C(=O)N[C@@H](CCC(=O)O)C(=O)O)cc3)nc2c(=O)[nH]1 [folic acid],fold uptake,[3],"from chimpanzee, orangutan and gibbon accumulated [^3H]-estradiol-17β-glucuronide and [^3H]-folic acid"
same,fold uptake,[4],"from chimpanzee, orangutan and gibbon accumulated [^3H]-estradiol-17β-glucuronide and [^3H]-folic acid"
B1,Km,[7],2.16 ± 0.59 µM
